Where two headings read alike, the source gives them in different places.
Experiments:
[1] = Hygroscopicity (vapor sorption analyser, DVS); assay type: physicochemical
Procedure: Single crystalline sample of compound TJ01-013 is tested using a Waters vaporsorption analyser. Taking a dry weighing tray, and laying a single sample of crystal form flat in the weighing tray, and the volume of the loaded samples is about ⅓ to ⅔ of that of the weighing tray. Instrument parameters are set as follows: temperature: 25° C.; equilibrium: dm/dt=0.01%/min (minimum time: 10 minutes, and maximum time: 180 minutes); drying: drying 120 minutes under 0% RH; RH (%) testing gradient: 10%; RH (%) test gradient range: 0%-90%-0%.

[2] = Crystal form conversion (heat treatment, suspension competition test, DSC analysis); assay type: physicochemical
Source text: The mutual conversion relationship among the A, B, C, D crystal forms of the sodium salt is further studied in this embodiment by heat treatment under nitrogen protection and suspension competition test.
However, the methods of heating, suspension pulping as well as grinding can not study the thermodynamic conversion relationship between crystal form A and crystal form D. In order to further study the thermodynamic conversion relationship of crystal form A and crystal form D, analyzed from the DSC pattern, the DSC of crystal form A is shown in FIG. 2, and the DSC of crystal form D is shown in FIG. 11, the melting point of crystal form A is higher than that of crystal form D, whereas the enthalpy of melting of crystal form A is much lower than that of crystal form D. It may be judged from the thermodynamic stability relationship table that if TA>TD, ΔHf, A>ΔHf, D, crystal form A and D is a univariate relationship, crystal form A is stable, if TA>TD, ΔHf, A<ΔHf, D, crystal forms A and D are reciprocal relationships, if the temperature is higher than the transcrystallization temperature, crystal form A is stable, and if the temperature is lower than the transcrystallization temperature, crystal form D is stable.

Rat pharmacokinetic test = assay type: in vivo, SD rats; settings: for AUC(0-t): read-out: AUC0-24 h; for MRT inf: read-out: MRT0-∞; for MRT last: read-out: MRT0-24 h
Procedure: The plasma kinetic characteristics of the prototype drugs in healthy SD rats are analyzed after three doses of single gavage administration, a single dose of consecutive multiple gavage administration, and a single dose of intravenous injection administration of the sodium salt D crystal form of TJ01-013. These include the rate of absorption and degree of exposure, individual differences, dose relationship, rate of elimination, attainment of steady state, and possible accumulation of D crystal form of TJ01-013. After SD rats are administrated 10, 30, and 90 mg/kg of D crystal form of TJ01-013 by gavage in a single dose, 30 mg/kg of D crystal form of TJ01-013 by gavage in a single dose once per day for 7 consecutive days, and 10 mg/kg of D crystal form of TJ01-013 by intravenous injection in a single dose, the data of the concentrations of the prototype drugs in plasma at different time points in each animal are calculated by applying WinNonlin software fitting, and the mean pharmacokinetic parameters of each group of 6 animals (half of males and half of females) are summarized as shown in Table 12 below.

[3] = test system: renal ischemia-reperfusion (I/R) model of SD rats; experiment: Acute kidney injury model caused by unilateral renal ischemia and reperfusion in rats; assay type: in vivo
Procedure: The pharmacodynamic effects of the D crystal form of TJ01-013 are studied in a renal ischemia-reperfusion (I/R) model of SD rats. Each group has twelve male rats of 280-300 g. They are administered by gavage once a day for 3 consecutive days. Three dose groups are divided into 3 mg/kg, 10 mg/kg and 30 mg/kg. The sham group and model control group were administered by equal volumes of 0.5% CMC-Na, and left renal artery ligation is performed 1 h after administration on the fourth day, and right nephrectomy is performed after 45 min of ischemia and before reperfusion, and then administered every day until 3 d after administration. The endpoint of the experiment is 3 d after administration.

[4] = test system: SD rat puromycin aminonucleoside (PAN) model; experiment: PAN-induced renal injury model in rats; assay type: in vivo, SD rats
Procedure: The effect of D crystal form of TJ01-013 on renal function is studied in the SD rat puromycin aminonucleoside (PAN) model. Each group has twelve male rats of 160-180 g. On the first day of the experiment, except for the normal control group, rats in the other groups are given a single intraperitoneal injection of 100 mg/kg PAN (aminonucleoside puromycin) to induce the production of proteinuria. After modeling, the rats are randomly divided into the model control group, the three dose groups of 3 mg/kg, 10 mg/kg, and 30 mg/kg of the D crystal form of TJ01-013, and the normal control group. At the same time as intraperitoneal injection of PAN for modeling, the drug is administered by gavage once a day, with a volume of 10 mL/kg, for four consecutive weeks.

[5] = both sexes, SD, rat, plasma, po, 10 mg/kg, SD rats, single gavage, 10 mg/kg
[6] = both sexes, SD, rat, plasma, po, 30 mg/kg, SD rats, multiple gavage, 30 mg/kg once per day for 7 days
[7] = both sexes, SD, rat, plasma, po, 30 mg/kg, SD rats, single gavage, 30 mg/kg
[8] = both sexes, SD, rat, plasma, po, 90 mg/kg, SD rats, single gavage, 90 mg/kg
[9] = both sexes, Sprague-Dawley (SD), rat, plasma, SD rats, single intravenous injection, 10 mg/kg
[10] = both sexes, rat, plasma, po, SD rats, single gavage, 10 mg/kg
[11] = both sexes, rat, plasma, po, SD rats, single gavage, 30 mg/kg
[12] = both sexes, rat, plasma, po, SD rats, single gavage, 90 mg/kg
[13] = 3 mg/kg, 10 mg/kg, and 30 mg/kg, P<0.05-0.001
[14] = 10 mg/kg and 30 mg/kg, versus model control, P<0.001
[15] = 3, 10, and 30 mg/kg gavage, 7 and 12 d after administration, versus model control

SMILES: O=C(O)C[S+]([O-])c1cc(NS(=O)(=O)c2ccc(Br)cc2)c2ccccc2c1O (stereo not drawn) [Embodiment 4]
- Percentage weight gain by moisture absorption ([1]; 90% RH, 25° C.): 2.13%
- Hygroscopicity (in words) ([1]; according to Table 7, 90% RH): slightly hygroscopic
- Crystal form conversion / relative stability in suspension competition test ([2]; equal amounts mixed, RT/50, magnetic stirring ~1000 rpm, about 20 hours, listed as crystal form D): more stable than crystal form B, C
- Thermodynamic stability of crystal form A versus crystal form D ([2]; judged from DSC data (Tables 9-10)): more stable at lower temperatures
- Dose relationship of exposure (Cmax, AUC0-24 h) (Rat pharmacokinetic test; SD rats, single gavage 10, 30, 90 mg/kg): the increase ratio is smaller than that of the dose
- Pharmacokinetic characteristics (in words) (Rat pharmacokinetic test; SD rats, single gavage and intravenous administration): rapid absorption, low apparent volume of distribution and moderate elimination rate
- Tissue distribution (in words) (Rat pharmacokinetic test; SD rats, single intravenous administration): low degree tissue distribution
- Difference of plasma pharmacokinetic parameters between male and female (Rat pharmacokinetic test; SD rats, single intravenous, single and multiple gavage): no significant difference between male and female
- AUC(0-t) (Rat pharmacokinetic test; both sexes, SD, rat, plasma, iv, 10 mg/kg, SD rats, single intravenous injection, 10 mg/kg): 112000 ± 11000 ng·h/mL
- AUC(0-inf) (Rat pharmacokinetic test; both sexes, SD, rat, plasma, po, 10 mg/kg, SD rats, single gavage): 11100 ± 4320 ng·h/mL
- AUC(0-t) (Rat pharmacokinetic test; [5]): 10700 ± 4440 ng·h/mL
- MRT inf (Rat pharmacokinetic test; [5]): 4.82 ± 1.4 h
- AUC(0-inf) (Rat pharmacokinetic test; [6]): 26600 ± 14200 ng·h/mL
- AUC(0-t) (Rat pharmacokinetic test; [6]): 26200 ± 13700 ng·h/mL
- MRT inf (Rat pharmacokinetic test; [6]): 3.86 ± 0.947 h
- AUC(0-inf) (Rat pharmacokinetic test; both sexes, SD, rat, plasma, po, 30 mg/kg, SD rats, single gavage): 22800 ± 6860 ng·h/mL
- AUC(0-t) (Rat pharmacokinetic test; [7]): 22100 ± 6660 ng·h/mL
- MRT inf (Rat pharmacokinetic test; [7]): 5.11 ± 1.84 h
- AUC(0-inf) (Rat pharmacokinetic test; both sexes, SD, rat, plasma, po, 90 mg/kg, SD rats, single gavage): 50100 ± 12200 ng·h/mL
- AUC(0-t) (Rat pharmacokinetic test; [8]): 49900 ± 12200 ng·h/mL
- MRT inf (Rat pharmacokinetic test; [8]): 3.94 ± 0.754 h
- AUC(0-inf) (Rat pharmacokinetic test; both sexes, Sprague-Dawley (SD), rat, plasma, iv, 10 mg/kg, SD rats, single intravenous injection): 113000 ± 11000 ng·h/mL
- MRT inf (Rat pharmacokinetic test; both sexes, Sprague-Dawley (SD), rat, plasma, iv, 10 mg/kg, SD rats, single intravenous injection, 10 mg/kg): 2.06 ± 0.192 h
- Cmax at 7 days (Rat pharmacokinetic test; both sexes, Sprague-Dawley (SD), rat, plasma, po, SD rats, multiple gavage, 30 mg/kg once per day for 7 days): 5900 ± 3210 ng/mL
- Tmax at 7 days (Rat pharmacokinetic test; both sexes, Sprague-Dawley (SD), rat, plasma, po, SD rats, multiple gavage, 30 mg/kg once per day for 7 days, median (min, max)): 1 h
- Tmax (Rat pharmacokinetic test; both sexes, Sprague-Dawley (SD), rat, plasma, po, SD rats, single gavage, 10 mg/kg, median (min, max)): 0.5 h
- Tmax (Rat pharmacokinetic test; both sexes, Sprague-Dawley (SD), rat, plasma, po, SD rats, single gavage, 30 mg/kg, median (min, max)): 0.5 h
- Tmax (Rat pharmacokinetic test; both sexes, Sprague-Dawley (SD), rat, plasma, po, SD rats, single gavage, 90 mg/kg, median (min, max)): 1 h
- clearance (Rat pharmacokinetic test; [9]): 1.49 mL/min/kg
- half-life (Rat pharmacokinetic test; [9]): 2.26 ± 0.222 h
- MRT last (Rat pharmacokinetic test; [9]): 2 ± 0.168 h
- bioavailability (Rat pharmacokinetic test; both sexes, rat, plasma, oral, SD rats, single gavage 10 mg/kg versus intravenous 10 mg/kg, read-out: F (absolute bioavailability)): 9.55%
- half-life at 7 days (Rat pharmacokinetic test; both sexes, rat, plasma, po, SD rats, multiple gavage, 30 mg/kg once per day for 7 days): 1.94 ± 0.898 h
- Cmax (Rat pharmacokinetic test; [10]): 3130 ± 1660 ng/mL
- half-life (Rat pharmacokinetic test; [10]): 3.86 ± 1.47 h
- MRT last (Rat pharmacokinetic test; [10]): 3.84 ± 0.708 h
- Cmax (Rat pharmacokinetic test; [11]): 4730 ± 1200 ng/mL
- half-life (Rat pharmacokinetic test; [11]): 3.54 ± 2.55 h
- MRT last (Rat pharmacokinetic test; [11]): 4.42 ± 0.923 h
- Cmax (Rat pharmacokinetic test; [12]): 9980 ± 1850 ng/mL
- half-life (Rat pharmacokinetic test; [12]): 2.08 ± 0.754 h
- MRT last (Rat pharmacokinetic test; [12]): 3.89 ± 0.756 h
- concentration at 5 min (Rat pharmacokinetic test; both sexes, rat, plasma, SD rats, single intravenous injection, 10 mg/kg, read-out: C5 min): 79900 ± 11600 ng/mL
- Vd (Rat pharmacokinetic test; both sexes, rat, plasma, SD rats, single intravenous injection, 10 mg/kg, read-out: Vss): 0.184 L/kg
- Accumulation (Rat pharmacokinetic test; rats, 30 mg/kg gavage once a day for 7 consecutive days): no obvious accumulation
- Creatinine clearance rate ([3]; 3 mg/kg, 10 mg/kg and 30 mg/kg, versus model control): different degrees of improvement
- Expression level of inflammatory factor IL-1p in renal tissues [3, 13]: significantly decreased
- Expression level of inflammatory factor IL-6 in renal tissues [3, 13]: significantly decreased
- Urea nitrogen level ([3]; 10 mg/kg and 30 mg/kg, 72 h after ischemia-reperfusion): significant trend of decrease
- Apoptotic cell rate in renal tissue [3, 14]: significantly decreased
- Expression level of apoptotic factor caspase 9 in renal tissues [3, 14]: significantly decreased
- Creatinine values ([3]; 10 mg/kg, 24 h, 48 h and 72 h after ischemia-reperfusion, versus model control, P<0.05-0.01): significantly decreased
- Degree of renal lesions (tubular dilatation, necrosis, glomerular atrophy, inflammatory cell infiltration etc.) ([3]; 10 mg/kg, versus model control): significantly reduced
- Creatinine clearance rate ([3]; 10 mg/kg, versus model control, P<0.05): statistically significant
- Creatinine values ([3]; 30 mg/kg, 24 h and 72 h after reperfusion, P<0.05): significantly decreased
- Degree of renal lesions (tubular dilatation, necrosis, glomerular atrophy, inflammatory cell infiltration etc.) ([3]; 30 mg/kg, versus model control): tendency to reduce the above lesions
- Effect on body weight ([3]; 3, 10, and 30 mg/kg gavage, 72 h after reperfusion, versus model control): no significant effect
- Amount of the 24 h urine protein [4, 15]: different degrees of reduction
- Urine protein concentration [4, 15]: different degrees of reduction
- Amount of the 24 h urine protein ([4]; 3, 10, and 30 mg/kg, 12 d after administration): certain trend of reduction
- Blood albumin ([4]; 3, 10 and 30 mg/kg, 7 d and 12 d after administration, versus model control): different degrees of increase
- Therapeutic effect on PAN-induced renal injury ([4]; gavage 3, 10, 30 mg/kg): significant therapeutic effect
- Degree of renal lesions, pathologic microscopy ([4]; low, medium and high dose groups): reduce the degree of lesions

Source: US20250333377A1, “SOLID FORM OF NAPHTHYLAMINE MITOPHAGY INDUCER, AND PREPARATION METHOD THEREFOR, PHARMACEUTICAL COMPOSITION THEREOF AND USE THEREOF” (HANGZHOU PHECDAMED CO., LTD., priority 2023, published 2025)
